Experimental findings from US8815844B2, “Mitochondrial activity inhibitors of cancer-initiating cells and use thereof” (Universite de Geneve, priority 2009, dated 2014) are described below.

The subject of one data set is primary GBM-2 cells. Briefly: in vivo tumorigenicity of cells pretreated in vitro with inhibitors. The arrangement: species or system mice. The settings on record: GBM-2 cells treated 10 days in vitro prior implantation; for histological analyses for tumours: 17 weeks post-implantation; for state of mice implanted with pretreated cells: up to 17 weeks post-implantation. The source says: Control mice had symptoms 4 weeks post-implantation and were sacrificed. […] Experiment was stopped 17 weeks post-implantation.

Data set [1] deals with FL1^+ cells (glioma-initiating cells, gliomasphere cultures). Description: in vitro recurrence assay (treatment then recovery), viable FL1+ cells by FACS. Type of data set: cell-based, human. The settings on record: for killing of FL1^+ cells: 5 μM, exposure along 20 days; for killing of FL1^+ cell population by inhibition of mitochondrial complex: FIG. 6, 5 μM; for rating as anti-CSC agent: in vitro recurrence assay criteria; for number of viable FL1^+ cells: temsirolimus (1 μM elsewhere in the source), 5 μM cyclopamine, 5 μM DAPT. The source says:
In contrast to other methods, which preferentially use cancer cell lines and stem cell marker like CD133 as a read-out of stemness, the Applicants' technology relies on primary cell cultures derived from human specimen and on a simple and unbiased detection of CICs independently of the use of any marker. Thus Applicants took advantage of such methodology to design and develop an in vitro recurrence assay to screen and validate potential therapeutic agents for eradicating cancer stem cells in glioma. […] The novelties here reside on the read-out of stemness used for testing the efficiency of any drug and on the possibility to identify specific anti-CSC agent.
Basically, any agent or inhibitor would be considered as an efficient anti-CSC agent if it fulfils the following criteria:
• 1) a viability of GICs (FL1^+ cells) decreases for more than 50% during the exposure to said agent or inhibitor during a maximum of 20 days, • 2) a recovery of GICs (FL1^+ cells) is less than 0.2 fold during the recovery phase of a maximum of 20 days, and • 3) the viability of normal brain cells is sustainable and recoverable during and after the exposure to the said agent or inhibitor.
a) Providing a cancer stem cell sample;
b) Treating the cancer stem cell sample provided under (a) with an agent;
c) Incubating the treated stem cell sample in a stem cell culture medium for an incubation period without treatment;
d) Selecting the viable cell population from the stem cell sample incubated under step (c); […]
A general note: Flow cytometry measures light scatter and fluorescence of single cells or particles in a stream.

For another data set, the system named is FL1^+ cells. Description: effect of exogenous lactate addition on FL1+ cells. Type of data set: cell-based, human. The settings on record: exogeneous lactate along 10 days. Here is the method: A: Levels of metabolite (LAC: lactate, PYR: pyruvate, GLUC: glucose) for FL1^+ and FL1^0 cells; B & C: Effect of lactate addition (LAC) on FL1^+ cell morphology by phase contrast imaging (B) and on the percentage of FL1^0 cells (C). Non treated (NT); Scale bar: […]. D: Level of active Lactate Deshydrogenase (LD expressed in UI/L) in purified-FL1^+ and -FL1^0 cells.

The test system of data set [2] is primary glioma cells (FBS cultures).
Protocol: (§1) To test the specificity of such inhibitor towards CICs, normal brains cells and primary glioma cells (FBS cultures) were exposed to the above mentioned mitochondrial agents for 10 days.
(§2) For short term/dose response (48 hrs): Dissociated gliomasphere cells, adherent glioma and normal cells were plated at 10 cell/μl in DMEM-F12 Glutamax, BIT20% or B27 (1/50), Hepes 30 mM, Penicillin/streptomycin 1/1000, with reduced mitogens at 1 ng/ml or with reduced level of serum (2.5%).
(§3) For long term treatment/recovery assay (T10 and/or T20): Dissociated gliomasphere cells, adherent glioma and normal cells were plated at 2 cell/μl in DMEM-F12 Glutamax, Hepes 30 mM, BIT20% or B27 (1/50), Penicillin/streptomycin 1/1000, with reduced mitogens at 1 ng/ml or with reduced level of serum (2.5%).
(§4) For the recovery, cells were harvested, washed with PBS1x, and placed back into their standard media.

Protocol for normal brain cells: as §1, §2, §3, §4

Take `C=C(C)[C@H]1Cc2c(ccc3c2O[C@@H]2COc4cc(OC)c(OC)cc4[C@@H]2C3=O)O1` [Rotenone]: in the data set on primary GBM-2 cells, the “histological analyses for tumours” value is “no visible tumours” and the “state of mice implanted with pretreated cells” value was “alive without symptoms”. Moreover, in data set [1], the “killing of FL1^+ cells” value is “kills all FL1^+ cell” and the “killing of FL1^+ cell population by inhibition of mitochondrial complex” value is recorded as “kills the FL1^+ cell population”.
`CCCCCC[C@H]1C(=O)O[C@H](C)[C@H](NC(=O)c2cccc(NC=O)c2O)C(=O)O[C@@H](C)[C@@H]1OC(=O)CC(C)C` [Antimycin A]: the “effect on normal brain cells” value in the data set on normal brain cells (FIG. 6) was “does not really affect the viability of normal brain cells”. In the data set with normal brain cells (exposure for 10 days), the “viability of normal brain cells” value is listed as “allows normal brain cells to survive”.
On to `C[C@H](NC(=O)Cc1cc(F)cc(F)c1)C(=O)N[C@H](C(=O)OC(C)(C)C)c1ccccc1` [DAPT, N—[N-(3,5-Difluorophenacetyl-L-alanyl)]-S-phenylglycine t-Butyl Ester], for which, in data set [1], the “rating as anti-CSC agent” value is recorded as “inefficient” and the “number of viable FL1^+ cells” value is “decrease of the number of viable FL1^+ cells”.
In the case of `CC1=C2C[C@H]3[C@@H](CC=C4C[C@@H](O)CC[C@@]43C)[C@@H]2CC[C@]12O[C@@H]1C[C@H](C)CN[C@H]1[C@H]2C` [cyclopamine, Cyclopamine], the “rating as anti-CSC agent” value in data set [1] is listed as “inefficient”.
On to `CC(O)C(=O)O` (centres unmarked) [lactate], for which, in the data set on FL1^+ cells, the “effect on FL1^+ cell morphology” value was “induce cell adhesion” and the “effect on cell phenotype (FL1^0 cells)” value is “commits cells towards the FL1^0 phenotype”.
As for `CO[C@H]1C[C@@H]2CC[C@@H](C)[C@@](O)(O2)C(=O)C(=O)N2CCCC[C@H]2C(=O)O[C@H]([C@H](C)C[C@@H]2CC[C@@H](OC(=O)C(C)(CO)CO)[C@H](OC)C2)CC(=O)[C@H](C)/C=C(\C)[C@@H](O)[C@@H](OC)C(=O)[C@H](C)C[C@H](C)/C=C/C=C/C=C/1C` [temsirolimus, Temsirolimus], in data set [1], the “rating as anti-CSC agent” value is “inefficient” and the “number of viable FL1^+ cells” value is “decrease of the number of viable FL1^+ cells”.
As to `C#Cc1cccc(Nc2ncnc3cc(OCCOC)c(OCCOC)cc23)c1` [Erlotinib], the “time in which gliomasphere cultures recover from the treatment” value in data set [1] (all gliomasphere cultures, long term treatment, Erlotinib 5 μM) is on record as no more than 10 days. In data set [1] (long term treatment, Erlotinib 5 μM), the “GBM in which cell death is induced in more than 50% of FL1^+ cells” value is 2/6.
As to `Cn1nnc2c(C(N)=O)ncn2c1=O` [temozolomide, Temozolomide], the viability at 25 µM in data set [1] (Homo sapiens, 480 h, temozolomide 25 μM, up to 20 days treatment, read-out: FL1^+ cells still viable after treatment) is greater than 30%.
For `CN(C)CCCN1c2ccccc2CCc2ccc(Cl)cc21` [Anafranil, Clomipramine], in the data set on primary GBM-2 cells, the “histological analyses for tumours” value was “no visible tumours” and the “state of mice implanted with pretreated cells” value is reported as “alive without symptoms”. Moreover, the “killing of FL1^+ cells” value in data set [1] is listed as “kills all FL1^+ cell”.
With Oligomycin A/B, in data set [2] (FIG. 6), the “effect on glioma cells” value is “eradicate any kind of brain cells including normal and glioma ones”. Further, the “viability of primary glioma cells” value in data set [2] (exposure for 10 days, FBS cultures) is given as “sensitive”. In data set [1], the “killing of FL1^+ cells” value is “kills all FL1^+ cell” and the “killing of FL1^+ cell population by inhibition of mitochondrial complex” value is given as “kills the FL1^+ cell population”.
